In PubChem BioAssay (NCI):
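Exposure lasted 48 hours, with cells grown in 96-well plates and compounds tested at five concentrations. TGI is the concentration that stops growth completely.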

Tests used:
Test in all cases: inhibition of tumour cell growth, NCI panel, 48 h
[1] = tested on: A498 renal
[2] = tested on: ACHN renal
[3] = tested on: KM12 colon
[4] = tested on: MDA-MB-231 breast
[5] = tested on: MDA-MB-435
[6] = tested on: MDA-N
[7] = tested on: NCI-H226 lung
[8] = tested on: NCI/ADR-RES ovarian
[9] = tested on: OVCAR-3 ovarian
[10] = tested on: SF-268 CNS
[11] = tested on: SF-539 CNS
[12] = tested on: SNB-75 CNS
[13] = tested on: K-562 leukemia
[14] = tested on: MALME-3M melanoma
[15] = tested on: NCI-H522 lung
[16] = tested on: T-47D breast
[17] = tested on: LXFL 529 NSCLC
[18] = tested on: M19-MEL melanoma
[19] = tested on: SW-620 colon
[20] = tested on: DU-145 prostate

SMILES | TGI [1] [µM] | TGI [2] [µM] | TGI [3] [µM] | TGI [4] [µM] | TGI [5] [µM] | TGI [6] [µM] | TGI [7] [µM] | TGI [8] [µM] | TGI [9] [µM] | TGI [10] [µM] | TGI [11] [µM] | TGI [12] [µM] | TGI [13] [µM] | TGI [14] [µM] | TGI [15] [µM] | TGI [16] [µM] | TGI [17] [µM] | TGI [18] [µM] | TGI [19] [µM] | TGI [20] [µM]
COc1ccc(-c2csc(=Nc3ccccc3)n2CCCN(C)C)cc1 | 49.2 | 48.6 | 29.5 | > 100 | 65.3 | > 100 | 38.1 | 54.3 | 37.5 | 56.4 | 32 | 19.3 | – | – | – | – | – | – | – | –
COc1cc(C2S/C(=C/c3ccccc3)C(=O)N2c2ccc(NC(C)=O)cc2)cc(OC)c1OC (configuration not stated) | 67.3 | 77.8 | 31 | 41.3 | 62.4 | 63.4 | – | 76.2 | – | 83.3 | – | 37.5 | > 100 | 55.6 | 26.6 | 55.1 | – | – | – | –
O=C1C(Cl)N(c2cccc(Cl)c2)C1c1c[nH]c2ccccc12 (configuration not stated) | – | – | > 100 | – | – | – | – | – | > 100 | > 100 | > 100 | > 100 | > 100 | > 100 | > 100 | – | > 100 | > 100 | > 100 | –
CCOC1=NC(C(F)(F)F)(C(F)(F)F)N=C(N2CCOCC2)O1 | – | > 100 | > 100 | > 100 | > 100 | > 100 | – | > 100 | > 100 | > 100 | > 100 | > 100 | – | – | > 100 | > 100 | – | – | > 100 | > 100
CC[C@@H]1ON(C)[C@H]2CN(C)C(=O)[C@@H]12 | – | > 100 | – | > 100 | > 100 | > 100 | > 100 | > 100 | > 100 | – | – | – | > 100 | – | > 100 | > 100 | – | – | > 100 | > 100
COc1nc2ccc(COc3ccc(C(=O)NC(CCC(=O)O)C(=O)O)cc3)cc2nc1OC (configuration not stated) | – | > 10 | > 10 | > 10 | > 10 | > 10 | > 10 | – | > 10 | > 10 | > 10 | > 10 | > 10 | – | > 10 | > 10 | – | – | > 10 | > 10
